Measured values from patent publication US20080146617A1, “Methods of treating inflammatory diseases” (Roche Palo Alto LLC, priority 2006, published 2008).
Like-named read-outs stand apart in the source and are kept apart here.

What was measured:
Test in all cases: KinomeScan kinase profiling
Format in all cases: binding
CLK2 = target: T1, CLK2 (Homo sapiens, UniProt P49760)
T1 construct: purchased Ambit Biosciences (San Diego, Calif.)

RPS6KA3 = target: T2, RPS6KA3 (Homo sapiens, UniProt P51812)
T2 construct: purchased Ambit Biosciences

PAK4 = target: T3, PAK4 (Homo sapiens, UniProt O96013)
T3 construct: purchased Ambit Biosciences (San Diego, Calif.)

PCTK1 = target: T4, PCTK1 (Homo sapiens, UniProt Q00536)
T4 construct: purchased Ambit Biosciences (San Diego, Calif.)

JAK2(Kin.Dom2) = target: T5, JAK2(Kin.Dom2) (Homo sapiens, UniProt O60674)
T5 construct: JAK2(Kin.Dom2); purchased Ambit Biosciences (San Diego, Calif.)

PTK6 = target: T6, PTK6 (Homo sapiens, UniProt Q13882)
T6 construct: purchased Ambit Biosciences

STK11 = target: T7, STK11 (Homo sapiens, UniProt Q15831)
T7 construct: purchased Ambit Biosciences
Excerpt: (§1) The selectivity of a given CK1δ, CK1ε or CK1δ-CK1ε inhibitor compound can be determined by testing the compound against a panel of known kinases. An example of such a kinase profiling technology is the “KinomeScan” from Ambit Biosciences in which compounds can be screened for their modulatory activities against more than 200 known kinases.

PDGFRB = target: T8, PDGFRB (Homo sapiens, UniProt P09619)
T8 construct: purchased Ambit Biosciences (San Diego, Calif.)
Excerpt: as §1

SYK = target: T9, SYK (Homo sapiens, UniProt P43405)
T9 construct: purchased Ambit Biosciences
Excerpt: as §1

BMX = target: T10, BMX (Homo sapiens, UniProt P51813)
T10 construct: purchased Ambit Biosciences (San Diego, Calif.)
T10 sequence (P51813 whole entry): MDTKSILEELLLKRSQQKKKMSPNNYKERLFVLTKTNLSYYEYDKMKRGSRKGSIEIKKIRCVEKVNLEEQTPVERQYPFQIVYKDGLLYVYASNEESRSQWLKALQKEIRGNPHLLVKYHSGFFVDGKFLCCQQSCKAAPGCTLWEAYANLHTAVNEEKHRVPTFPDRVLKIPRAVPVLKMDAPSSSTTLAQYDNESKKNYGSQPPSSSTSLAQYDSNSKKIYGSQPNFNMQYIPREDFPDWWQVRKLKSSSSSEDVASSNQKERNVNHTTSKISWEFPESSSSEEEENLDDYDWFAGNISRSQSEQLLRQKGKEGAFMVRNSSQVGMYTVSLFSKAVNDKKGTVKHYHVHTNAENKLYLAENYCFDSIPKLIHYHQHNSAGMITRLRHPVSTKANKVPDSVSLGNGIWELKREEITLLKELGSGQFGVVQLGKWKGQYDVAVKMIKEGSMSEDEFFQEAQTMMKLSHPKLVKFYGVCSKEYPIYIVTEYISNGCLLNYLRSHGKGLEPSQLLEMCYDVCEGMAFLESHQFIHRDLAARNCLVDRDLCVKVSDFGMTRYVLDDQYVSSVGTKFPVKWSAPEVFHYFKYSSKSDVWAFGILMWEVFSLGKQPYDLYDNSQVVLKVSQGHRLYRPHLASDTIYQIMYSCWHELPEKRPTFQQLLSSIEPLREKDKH
Excerpt: as §1

ABL1 = target: T11, ABL1 (Homo sapiens, UniProt P00519)
T11 construct: purchased Ambit Biosciences (San Diego, Calif.)
T11 sequence (P00519 whole entry): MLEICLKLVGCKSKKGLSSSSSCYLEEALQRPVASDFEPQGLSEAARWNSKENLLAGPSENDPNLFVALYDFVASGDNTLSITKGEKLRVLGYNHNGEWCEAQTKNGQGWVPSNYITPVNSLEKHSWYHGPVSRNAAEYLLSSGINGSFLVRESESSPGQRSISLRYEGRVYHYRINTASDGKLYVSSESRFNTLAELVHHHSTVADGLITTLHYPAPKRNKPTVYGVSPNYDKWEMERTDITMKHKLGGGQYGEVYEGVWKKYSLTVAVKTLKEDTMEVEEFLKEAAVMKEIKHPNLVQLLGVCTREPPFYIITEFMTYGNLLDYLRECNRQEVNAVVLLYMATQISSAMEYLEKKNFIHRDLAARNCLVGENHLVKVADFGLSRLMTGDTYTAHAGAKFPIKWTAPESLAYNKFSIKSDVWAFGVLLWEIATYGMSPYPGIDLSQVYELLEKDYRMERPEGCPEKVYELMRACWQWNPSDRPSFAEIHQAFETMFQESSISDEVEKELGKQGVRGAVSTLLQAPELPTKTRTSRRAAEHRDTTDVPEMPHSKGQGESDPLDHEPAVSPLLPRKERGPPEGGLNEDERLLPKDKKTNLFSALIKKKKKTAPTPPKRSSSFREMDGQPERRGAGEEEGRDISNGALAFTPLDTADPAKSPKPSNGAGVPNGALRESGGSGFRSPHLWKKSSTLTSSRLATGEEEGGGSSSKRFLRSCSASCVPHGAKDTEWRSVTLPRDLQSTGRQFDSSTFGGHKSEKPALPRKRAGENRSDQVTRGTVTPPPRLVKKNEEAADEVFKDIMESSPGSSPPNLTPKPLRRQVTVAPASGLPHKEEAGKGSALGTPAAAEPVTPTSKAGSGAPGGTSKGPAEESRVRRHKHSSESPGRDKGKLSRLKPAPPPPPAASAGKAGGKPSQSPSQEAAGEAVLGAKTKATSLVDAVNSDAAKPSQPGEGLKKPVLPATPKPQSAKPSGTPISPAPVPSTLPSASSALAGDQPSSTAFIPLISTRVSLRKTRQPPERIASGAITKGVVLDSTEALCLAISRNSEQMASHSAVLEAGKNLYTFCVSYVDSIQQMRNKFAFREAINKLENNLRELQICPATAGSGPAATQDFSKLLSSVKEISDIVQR
Excerpt: as §1

STK10 = target: T12, STK10 (Homo sapiens, UniProt O94804)
T12 construct: purchased Ambit Biosciences
T12 sequence (O94804 whole entry): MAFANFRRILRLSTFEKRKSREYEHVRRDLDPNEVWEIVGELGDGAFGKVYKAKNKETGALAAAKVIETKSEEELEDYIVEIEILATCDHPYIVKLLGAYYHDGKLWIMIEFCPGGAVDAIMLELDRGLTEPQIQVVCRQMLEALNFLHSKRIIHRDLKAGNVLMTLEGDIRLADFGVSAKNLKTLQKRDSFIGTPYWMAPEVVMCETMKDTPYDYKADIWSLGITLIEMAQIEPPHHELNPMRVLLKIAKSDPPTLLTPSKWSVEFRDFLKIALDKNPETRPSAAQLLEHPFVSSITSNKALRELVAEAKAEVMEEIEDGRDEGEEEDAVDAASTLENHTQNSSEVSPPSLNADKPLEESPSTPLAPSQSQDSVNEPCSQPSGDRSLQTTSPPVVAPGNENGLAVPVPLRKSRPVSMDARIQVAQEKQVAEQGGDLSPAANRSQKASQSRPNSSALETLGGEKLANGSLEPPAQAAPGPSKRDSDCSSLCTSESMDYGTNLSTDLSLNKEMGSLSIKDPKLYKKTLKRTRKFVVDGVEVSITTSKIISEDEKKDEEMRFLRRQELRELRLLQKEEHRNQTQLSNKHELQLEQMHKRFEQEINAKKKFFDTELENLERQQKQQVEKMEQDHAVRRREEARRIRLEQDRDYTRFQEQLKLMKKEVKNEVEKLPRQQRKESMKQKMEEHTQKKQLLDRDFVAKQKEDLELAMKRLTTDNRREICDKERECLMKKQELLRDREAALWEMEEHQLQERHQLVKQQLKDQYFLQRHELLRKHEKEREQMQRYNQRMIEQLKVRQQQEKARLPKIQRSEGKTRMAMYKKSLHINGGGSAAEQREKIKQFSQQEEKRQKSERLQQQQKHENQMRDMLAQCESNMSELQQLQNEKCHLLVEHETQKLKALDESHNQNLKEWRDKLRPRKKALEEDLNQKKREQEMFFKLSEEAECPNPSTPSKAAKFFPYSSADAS
Excerpt: as §1

SRC = target: T13, SRC (Homo sapiens, UniProt P12931)
T13 construct: purchased Ambit Biosciences
Excerpt: as §1

CSNK1G1 = target: T14, CSNK1G1 (Homo sapiens, UniProt Q9HCP0)
T14 construct: purchased Ambit Biosciences (San Diego, Calif.)
Excerpt: as §1

EPHA6 = target: T15, EPHA6 (Homo sapiens, UniProt Q9UF33)
T15 construct: purchased Ambit Biosciences (San Diego, Calif.)
Excerpt: as §1

MARK2 = target: T16, MARK2 (Homo sapiens, UniProt Q7KZI7)
T16 construct: purchased Ambit Biosciences (San Diego, Calif.)
T16 sequence (Q7KZI7 whole entry): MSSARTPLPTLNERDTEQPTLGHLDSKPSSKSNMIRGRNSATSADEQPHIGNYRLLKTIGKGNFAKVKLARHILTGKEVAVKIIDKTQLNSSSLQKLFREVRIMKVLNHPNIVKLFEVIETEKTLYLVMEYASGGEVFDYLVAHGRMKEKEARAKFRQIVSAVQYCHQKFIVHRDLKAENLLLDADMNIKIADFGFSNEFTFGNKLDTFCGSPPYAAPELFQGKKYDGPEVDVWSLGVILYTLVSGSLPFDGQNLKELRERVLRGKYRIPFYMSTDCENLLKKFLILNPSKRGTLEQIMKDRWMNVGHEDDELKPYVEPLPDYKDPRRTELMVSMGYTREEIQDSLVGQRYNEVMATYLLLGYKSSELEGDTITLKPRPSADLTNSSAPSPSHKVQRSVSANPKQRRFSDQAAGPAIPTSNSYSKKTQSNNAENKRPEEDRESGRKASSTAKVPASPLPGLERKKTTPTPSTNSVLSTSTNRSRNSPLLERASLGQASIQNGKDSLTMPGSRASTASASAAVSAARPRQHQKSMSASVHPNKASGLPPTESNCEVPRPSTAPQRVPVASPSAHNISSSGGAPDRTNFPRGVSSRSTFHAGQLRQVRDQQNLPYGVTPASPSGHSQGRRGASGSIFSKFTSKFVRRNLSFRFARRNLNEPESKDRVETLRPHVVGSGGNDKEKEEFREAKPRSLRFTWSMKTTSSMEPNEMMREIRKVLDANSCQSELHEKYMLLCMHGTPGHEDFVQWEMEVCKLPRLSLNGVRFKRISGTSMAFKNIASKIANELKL
Excerpt: as §1

ERK2 = target: T17, ERK2 (Homo sapiens, UniProt P28482)
T17 construct: purchased Ambit Biosciences (San Diego, Calif.)
T17 sequence (P28482 whole entry): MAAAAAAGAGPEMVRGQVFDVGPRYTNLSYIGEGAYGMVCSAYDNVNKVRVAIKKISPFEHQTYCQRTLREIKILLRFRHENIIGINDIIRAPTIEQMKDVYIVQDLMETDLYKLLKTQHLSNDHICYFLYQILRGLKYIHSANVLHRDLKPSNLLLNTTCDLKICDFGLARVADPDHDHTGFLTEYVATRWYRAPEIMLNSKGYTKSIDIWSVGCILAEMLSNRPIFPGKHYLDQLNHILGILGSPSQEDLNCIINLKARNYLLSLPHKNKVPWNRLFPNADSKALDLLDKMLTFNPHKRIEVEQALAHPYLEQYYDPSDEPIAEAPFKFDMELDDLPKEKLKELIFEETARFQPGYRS
Excerpt: as §1

AAK1 = target: T18, AAK1 (Homo sapiens, UniProt Q2M2I8)
T18 construct: purchased Ambit Biosciences (San Diego, Calif.)
Excerpt: as §1

EGFR = target: T19, EGFR (Homo sapiens, UniProt P00533)
T19 construct: purchased Ambit Biosciences (San Diego, Calif.)
Excerpt: as §1

FYN = target: T20, FYN (Homo sapiens, UniProt P06241)
T20 construct: purchased Ambit Biosciences (San Diego, Calif.)
T20 sequence (P06241 whole entry): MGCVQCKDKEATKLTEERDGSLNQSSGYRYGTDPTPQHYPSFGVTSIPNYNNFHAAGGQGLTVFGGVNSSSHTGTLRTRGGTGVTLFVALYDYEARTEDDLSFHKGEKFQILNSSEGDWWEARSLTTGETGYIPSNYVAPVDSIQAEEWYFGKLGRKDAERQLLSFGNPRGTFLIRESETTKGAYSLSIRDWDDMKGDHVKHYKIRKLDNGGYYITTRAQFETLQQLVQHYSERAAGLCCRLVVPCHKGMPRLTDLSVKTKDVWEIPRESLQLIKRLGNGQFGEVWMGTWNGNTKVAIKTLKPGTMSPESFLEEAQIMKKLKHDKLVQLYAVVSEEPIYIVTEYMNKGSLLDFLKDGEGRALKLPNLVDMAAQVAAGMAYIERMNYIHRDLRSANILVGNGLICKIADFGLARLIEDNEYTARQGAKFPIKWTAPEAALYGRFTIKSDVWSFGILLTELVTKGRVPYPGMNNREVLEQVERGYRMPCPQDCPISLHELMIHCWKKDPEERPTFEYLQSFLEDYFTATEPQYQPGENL
Excerpt: as §1

FRK = target: T21, FRK (Homo sapiens, UniProt P42685)
T21 construct: purchased Ambit Biosciences (San Diego, Calif.)
Excerpt: as §1

MAP3K4 = target: T22, MAP3K4 (Homo sapiens, UniProt Q9Y6R4)
T22 construct: purchased Ambit Biosciences (San Diego, Calif.)
Excerpt: as §1

NEK9 = target: T23, NEK9 (Homo sapiens, UniProt Q8TD19)
T23 construct: purchased Ambit Biosciences (San Diego, Calif.)
Excerpt: as §1

RIPK2 = target: T24, RIPK2 (Homo sapiens, UniProt O43353)
T24 construct: purchased Ambit Biosciences
Excerpt: as §1

RPS6KA5 = target: T25, RPS6KA5 (Homo sapiens, UniProt O75582)
T25 construct: purchased Ambit Biosciences
Excerpt: as §1

FLT4 = target: T26, FLT4 (Homo sapiens, UniProt P35916)
T26 construct: purchased Ambit Biosciences (San Diego, Calif.)
Excerpt: as §1

ERBB4 = target: T27, ERBB4 (Homo sapiens, UniProt Q15303)
T27 construct: purchased Ambit Biosciences (San Diego, Calif.)
Excerpt: as §1

FGFR1 = target: T28, FGFR1 (Homo sapiens, UniProt P11362)
T28 construct: purchased Ambit Biosciences (San Diego, Calif.)
Excerpt: as §1

EPHA8 = target: T29, EPHA8 (Homo sapiens, UniProt P29322)
T29 construct: purchased Ambit Biosciences (San Diego, Calif.)
Excerpt: as §1

PDPK1 = target: T30, PDPK1 (Homo sapiens, UniProt O15530)
T30 construct: purchased Ambit Biosciences (San Diego, Calif.)
Excerpt: as §1

DAPK2 = target: T31, DAPK2 (Homo sapiens, UniProt Q9UIK4)
T31 construct: purchased Ambit Biosciences (San Diego, Calif.)
T31 sequence (Q9UIK4 whole entry): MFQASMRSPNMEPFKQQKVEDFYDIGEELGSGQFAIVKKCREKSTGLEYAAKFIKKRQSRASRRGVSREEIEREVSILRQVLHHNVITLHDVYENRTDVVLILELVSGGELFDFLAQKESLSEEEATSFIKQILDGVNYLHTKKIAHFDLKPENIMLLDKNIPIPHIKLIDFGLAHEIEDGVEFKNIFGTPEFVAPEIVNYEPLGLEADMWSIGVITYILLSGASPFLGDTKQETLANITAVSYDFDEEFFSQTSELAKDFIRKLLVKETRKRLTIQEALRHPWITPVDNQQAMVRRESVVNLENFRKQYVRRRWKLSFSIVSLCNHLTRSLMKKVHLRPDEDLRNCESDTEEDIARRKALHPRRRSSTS

RPS6KA2 = target: T32, RPS6KA2 (Homo sapiens, UniProt Q15349)
T32 construct: purchased Ambit Biosciences

EPHA3 = target: T33, EPHA3 (Homo sapiens, UniProt P29320)
T33 construct: purchased Ambit Biosciences (San Diego, Calif.)

AMPK-alpha1 = target: T34, AMPK-alpha1 (Homo sapiens, UniProt Q13131)
T34 construct: purchased Ambit Biosciences (San Diego, Calif.)

p38-alpha = target: T35, p38-alpha (Homo sapiens, UniProt Q16539)
T35 construct: purchased Ambit Biosciences (San Diego, Calif.)

KIT = target: T36, KIT (Homo sapiens, UniProt P10721)
T36 construct: purchased Ambit Biosciences (San Diego, Calif.)

STK3 = target: T37, STK3 (Homo sapiens, UniProt Q13188)
T37 construct: purchased Ambit Biosciences

JNK2 = target: T38, JNK2 (Homo sapiens, UniProt P45984)
T38 construct: purchased Ambit Biosciences (San Diego, Calif.)

FGFR3 = target: T39, FGFR3 (Homo sapiens, UniProt P22607)
T39 construct: purchased Ambit Biosciences (San Diego, Calif.)

Measured: inhibition at 10 µM

NC(=O)c1ccc(-c2nc(-c3ccc4c(c3)OCO4)c(-c3ccccn3)[nH]2)cc1 [SB431542, 4-(4-benzo-[1,3]dioxol-5-yl-5-pyridin-2-yl-1H-imidazol-2-yl)benzamide]
< 50%: CLK2 | RPS6KA3 | PAK4 | PCTK1 | JAK2(Kin.Dom2) | PTK6 | STK11 | PDGFRB | SYK | BMX | ABL1 | STK10 | SRC | CSNK1G1; 10 μM, CSNK1G1, read-out: % Inhibition | EPHA6 | MARK2 | ERK2 | AAK1 | EGFR | FYN | FRK | MAP3K4 | NEK9 | RIPK2 | RPS6KA5 | FLT4 | ERBB4 | FGFR1 | EPHA8 | PDPK1 | DAPK2 | RPS6KA2 | EPHA3 | AMPK-alpha1 | p38-alpha | KIT | STK3 | JNK2 | FGFR3

NC(=O)c1ccc(-c2nc(-c3ccc4c(c3)OCCO4)c(-c3ccccn3)[nH]2)cc1 [D4476, 4-[4-(2,3-Dihydro-benzo[1,4]dioxin-6-yl)-5-pyridin-2-yl-1H-imidazol-2-yl]benzamide]
< 50%: CLK2 | RPS6KA3 | PAK4 | PCTK1 | JAK2(Kin.Dom2) | PTK6 | STK11 | PDGFRB | SYK | BMX | ABL1 | STK10 | SRC | CSNK1G1 | EPHA6 | MARK2 | ERK2 | AAK1 | EGFR | FYN | FRK | MAP3K4 | NEK9 | RIPK2 | RPS6KA5 | FLT4 | ERBB4 | FGFR1 | EPHA8 | PDPK1 | DAPK2 | RPS6KA2 | EPHA3 | AMPK-alpha1 | p38-alpha | KIT | STK3 | JNK2 | FGFR3
